Assay results from patent US20200237852A1, “Small Molecule Enhancers of Paneth Cell Function and Differentiation” (Massachusetts Institute of Technology, priority 2019, published 2020).
Values belong to the molecule of their own block, whether it stands above or below them.

Assays:
6-day ENR+CD cells [1] = test: Long-term (48-hour) modulators of basal and CCh-induced LYZ secretion; assay type: cell-based, murine; details: 48-hour treatment
Description: (§1) We next sought to profile potential long-term modulators of differentiated PC survival and antimicrobial secretion, as well as gauge the interaction between long-term modulators and short-term induced secretion (via CCh). To accomplish this, we employed a similar set up as in the short-term experiment, with the exception that upon plating day 4 ENR+CD cells we additionally supplemented in either MDP, LPS, TNF-α, or IFN-γ for the additional 2 days in culture and assayed all conditions for both basal and CCh-induced LYZ secretion over 3 hours on day 6 of differentiation (FIG. 3A). […] Additionally, we see that the long-term addition reduces CCh-induced secretory function relative to the untreated control for all agents (FIG. 3D).
(§2) Small intestinal crypts were isolated from C57BL/6 mice of both sexes, aged between three to six months in all experiments. Crypts were then cultured in a Matrigel culture system. Briefly, crypts were resuspended in basal culture medium (Advanced DMEM/F12 with 2 mM GlutaMAX and 10 mM HEPES; Thermo Fisher Scientific) at a 1:1 ratio with Corning™ Matrigel™ Membrane Matrix—GFR (Fisher Scientific) and plated at the center of each well of 24-well plates. Following Matrigel polymerization, 500 μL of small intestinal crypt culture medium (basal media plus 100× N2 supplement, 50×B27 supplement; Life Technologies, 500× N-acetyl-L-cysteine; Sigma-Aldrich) supplemented with growth factors EGF—E (50 ng/mL, Life Technologies), Noggin—N (100 ng/mL, PeproTech) and R-spondin 1—R (500 ng/mL, PeproTech) and small molecules CHIR99021—C (3 μM, LC Laboratories) and valproic acid—V (1 mM, Sigma-Aldrich) was added to each well. ROCK inhibitor Y-27632—Y (10 μM, R&D Systems) was added for the first 2 days of culture. Cells were cultured at 37° C. with 5% CO2, and cell culture medium was changed every other day. After 6 days of culture, crypt organoids were isolated from Matrigel by mechanical dissociation. To expand enriched ISCs (ENR+CV/Y) or Paneth Cells (ENR+CD), organoids were cultured in 24-well plates, suspended in 40 uL 3-D gels (50-50 GFR MATRIGEL®, Basal culture media), with 500 uL of crypt media supplemented with necessary growth factors and small molecules. ROCK inhibitor (Y) was added for the first two days of ISC culture following reconstitution from cryopreservation or trypLE passaging to single cells. Cell culture medium was changed every other day. After 4 days of culture in ENR+CV, cell clusters were differentiated to PCs under the ENR+CD condition for 96-well short and long-term screens. For 384-well differentiation screens, 4-day ENR+CV clusters were passaged to single cells using trypLE, replated and expanded another 3 days in 3-D ENR+CVY and then passaged directly into screens.
For 96-well plate high-throughput screening, 4-day differentiated (ENR+CD) cell clusters in 3D Matrigel were transferred to a “2.5-D” 96-well plate culture system. Briefly, cell culture gel and medium were homogenized via mechanical disruption and centrifuged at 300 g for 3 min at 4° C. […] On the last repeat, pellet was resuspended in basal culture medium, the number of cell clusters counted, and centrifuged at 300 g for 3 min at 4° C. […] At end time points (following 2 days in culture and 3 hours of stimulation), lysozyme secretion and cell viability were assessed using Lysozyme Assay Kit and CellTiter-Glo 3D Cell Viability Assay (Promega), respectively, according to the manufacturers' protocols. […]

6-day ENR+CD cells [2] = test: Cell pellet ATP after long-term (48-hour) treatment; assay type: cell-based, murine; details: low doses
Description: as §1
as §2, with “ROCK inhibitor (Y) was added for the first two days of ISC culture following reconstitution from cryopreservation or trypLE passaging to single cells. Cell culture medium was changed every other day. After 4 days of culture in ENR+CV, cell clusters were differentiated to PCs under the ENR+CD condition for 96-well short and long-term screens. For 384-well differentiation screens, 4-day ENR+CV clusters were passaged to single cells using trypLE, replated and expanded another 3 days in 3-D ENR+CVY and then passaged directly into screens.” left out
For 96-well plate high-throughput screening, 4-day differentiated (ENR+CD) cell clusters in 3D Matrigel were transferred to a “2.5-D” 96-well plate culture system. […] On the last repeat, pellet was resuspended in basal culture medium, the number of cell clusters counted, and centrifuged at 300 g for 3 min at 4° C. […] At end time points (following 2 days in culture and 3 hours of stimulation), lysozyme secretion and cell viability were assessed using Lysozyme Assay Kit and CellTiter-Glo 3D Cell Viability Assay (Promega), respectively, according to the manufacturers' protocols. […]

6-day ENR+CD cells [3] = test: Short-term (3-hour) stimulation of LYZ secretion, 2.5-D 96-well platform; assay type: cell-based, murine
Description: We first sought to profile the potential short-term actors, IFN-γ, LPS, and CCh, and see if with the added resolution of this first-of-its-kind PC platform, we might be able to determine high-resolution EC50's. To generate sufficient cells for plating out all necessary conditions we first expanded and enriched ISCs in traditional 3-D culture and subsequently differentiated for 4 days towards PCs (ENR+CD). Next, we passaged and plated these cells into 96-well plates as 2.5-D and continued differentiating for an additional 2 days in ENR+CD. On day 6 of differentiation, each well was then washed with basal media repeatedly and stimulated with its respective agent, with a measurement of supernatant LYZ paired to cell pellet ATP (FIG. 2A). This screen was repeated on three separate occasions with cells from three distinct murine donors and analyzed combined. We first wanted to determine the approximate standardized effect size of each treatment at each dose, which was accomplished through the replicate-based strictly standardized mean difference (SSMD), an effect size measure based on the statistics of contrast variables, and particularly useful in screening applications as it is a measure which takes into account both mean difference and variance in a single measure. […] In total, we see that our 2.5-D platform does provide a reasonable system for assessing and screening for potential short-term modulators of PC antimicrobial secretion.
Small intestinal crypts were isolated from C57BL/6 mice of both sexes, aged between three to six months in all experiments. Crypts were then cultured in a Matrigel culture system. Briefly, crypts were resuspended in basal culture medium (Advanced DMEM/F12 with 2 mM GlutaMAX and 10 mM HEPES; Thermo Fisher Scientific) at a 1:1 ratio with Corning™ Matrigel™ Membrane Matrix—GFR (Fisher Scientific) and plated at the center of each well of 24-well plates. […]

6-day ENR+CD cells [4] = test: Cell pellet ATP after short-term (3-hour) stimulation, 2.5-D 96-well platform; assay type: cell-based, murine; details: CCh: adj. p<0.01 for 10 and 100 μM doses
Description: We first sought to profile the potential short-term actors, IFN-γ, LPS, and CCh, and see if with the added resolution of this first-of-its-kind PC platform, we might be able to determine high-resolution EC50's. To generate sufficient cells for plating out all necessary conditions we first expanded and enriched ISCs in traditional 3-D culture and subsequently differentiated for 4 days towards PCs (ENR+CD). Next, we passaged and plated these cells into 96-well plates as 2.5-D and continued differentiating for an additional 2 days in ENR+CD. On day 6 of differentiation, each well was then washed with basal media repeatedly and stimulated with its respective agent, with a measurement of supernatant LYZ paired to cell pellet ATP (FIG. 2A). This screen was repeated on three separate occasions with cells from three distinct murine donors and analyzed combined. We first wanted to determine the approximate standardized effect size of each treatment at each dose, which was accomplished through the replicate-based strictly standardized mean difference (SSMD), an effect size measure based on the statistics of contrast variables, and particularly useful in screening applications as it is a measure which takes into account both mean difference and variance in a single measure. […]

ENR+CD organoids = test: Flow cytometry analysis, 3D culture, XPO1 inhibitors; assay type: cell-based, C57BL/6 mice; details: 6-day ENR+CD organoids
Protocol: ISC-enriched organoids cultured in 3D Matrigel with ENRCV media were passaged to 24-well plate in 3D Matrigel with ENRCV. At day zero, media were replaced to ENRCD with or without indicated compounds, and media were replaced every other day. At day six, cells were washed with basal media, and then harvested from Matrigel by mechanical disruption in TrypLE Express (ThermoFisher, 12605010) to remove Matrigel and dissociate organoids to single cells. After vigorous pipetting and incubation at 37° C. for 20 min, dissociated organoids were strained through a 35 μm cell strainer into a tube (Falcon, 352235). The cell filtrate was centrifuged again at 300×g for 3 min at 4° C. to pellet the cells. Cell pellets were resuspended in FACS buffer (2% FBS in PBS), and then transferred to an ultra low-bind 96-well plate (Corning, 7007). Cells were stained with Zombie-violet viability dye (BioLegend, 423107) at 100× for viability staining and/or antibody staining solution. FITC-conjugated antibody for lysozyme (Dako, […]) and APC-conjugated antibody for CD24 (BioLegend, 138505) were used at 100× dilution. Flow cytometry was performed using an LSR Fortessa (BD; Koch Institute Flow Cytometry Core at MIT). The data were analyzed using FlowJo v10 software.

[5] = test system: organoids differentiated under ENR+CV, ENR+CD, or ENR; test: Western blotting for LYZ in organoids; assay type: cell-based, C57BL/6 mice; details: six days in ENR+CV
Description: ISC-enriched organoids cultured in 3D Matrigel with ENRCV media were passaged to 24-well plate in 3D Matrigel with ENRCV. At day zero, media were replaced to ENR or ENRCD with or without indicated compounds, and media were replaced every other day. At day six, cells were harvested from Matrigel by mechanical disruption and suspended in basal media. Cell pellets were lysed with Pierce® IP lysis buffer (ThermoFisher, 87787) containing Halt™ Protease Inhibitor Cocktail, EDTA-Free (ThermoFisher, 87785) after 3-minute centrifuge at 300×g at 4° C. Cell extracts were resolved by NuPAGE® SDS-PAGE Gel system (ThermoFisher) and electroblotted onto polyvinylidene difluoride membranes using Criterion™ Blotter (Biorad). The membranes were blocked with 2% Blotting-Grade Blocker (Biorad, 1706404) in TBS-T (50 mM Tris-HCl, 150 mM NaCl, and 0.1% Tween 20, pH 8.0) and then probed with appropriate antibodies. Detection was performed using ECL Select™ Western Blotting Detection Reagent (Amersham, 45-000-999) and ImageQuant LAS4000 (GE Healthcare).

Structure (SMILES): CC(=O)N[C@H]1C(O)O[C@H](CO)[C@@H](O)[C@@H]1O[C@H](C)C(=O)N[C@@H](C)C(=O)N[C@H](CCC(=O)O)C(N)=O (mixture of isomers) [MDP, muramyl dipeptide]
effect size of reduction of CCh-induced secretory function relative to untreated control (6-day ENR+CD cells [1]; CCh-induced secretion over 3 hours on day 6): fairly moderate
change in basal LYZ secretion (SSMD effect) (6-day ENR+CD cells [1]; basal secretion over 3 hours on day 6): fairly moderate decrease in basal secretion
SSMD effect size of increase in cell number (ATP) (6-day ENR+CD cells [2]): fairly moderate
change in cell number (ATP rel. to ENR+CD) (6-day ENR+CD cells [2]): apparent increases in cell number

EC50 (6-day ENR+CD cells [3]; 3-hour stimulation of 6-day ENR+CD cells, 9-well replicates from 3 bio. donors, read-out: EC50 for LYZ secretion (least-squares dose-response fit)): 5 µM
Structure (SMILES): C[N+](C)(C)CCOC(N)=O.[Cl-] [CCh, carbamyl choline]
SSMD effect size as short-term modulator of LYZ secretion (6-day ENR+CD cells [3]; 3-hour stimulation, across all tested doses): strong effect
effect on cellular ATP (6-day ENR+CD cells [4]): significant effect on cellular ATP

Structure (SMILES): CCC(=C/[C@H](C)C/C=C/C(C)=C/[C@@H](C)C(=O)[C@@H](C)[C@H](O)[C@@H](C)C/C(C)=C/C(=O)O)/C=C/[C@@H]1OC(=O)C=C[C@@H]1C [Leptomycin B]
Paneth cell representation by flow cytometry (ENR+CD organoids): statistically significant increases in Paneth cell representation
LYZ abundance on a per-mass protein normalized basis (western blot) [5]: appreciably increase LYZ abundance
